Molecular target: T1, endothelial lipase (EL) (Homo sapiens, UniProt Q9Y5X9)
T1 construct: EL is released as secretory protein in high concentration into cell culture medium (conditioned medium) by recombinant cell lines (CHO, HEK293); made in house; host or cells: recombinant cell lines (CHO, HEK293); concentrated conditioned medium used as enzyme solution
T1 sequence (Q9Y5X9 21-500): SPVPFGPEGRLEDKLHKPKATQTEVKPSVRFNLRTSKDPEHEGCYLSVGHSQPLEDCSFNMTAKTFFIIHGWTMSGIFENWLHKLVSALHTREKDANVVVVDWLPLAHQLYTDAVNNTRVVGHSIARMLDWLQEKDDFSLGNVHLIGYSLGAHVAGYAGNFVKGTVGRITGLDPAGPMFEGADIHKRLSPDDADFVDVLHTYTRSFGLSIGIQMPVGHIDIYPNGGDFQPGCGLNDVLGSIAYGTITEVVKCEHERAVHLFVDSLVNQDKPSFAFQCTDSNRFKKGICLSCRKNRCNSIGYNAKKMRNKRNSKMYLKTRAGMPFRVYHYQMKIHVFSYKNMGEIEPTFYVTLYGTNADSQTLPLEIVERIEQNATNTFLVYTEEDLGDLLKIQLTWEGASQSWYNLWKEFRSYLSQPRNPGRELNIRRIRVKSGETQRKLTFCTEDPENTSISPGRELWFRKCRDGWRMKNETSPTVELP
Test: EL inhibition assay (EL activity assay, fluorescent Bodipy phospholipid substrate)
Format: biochemical
Settings: EL from conditioned medium of recombinant cell lines (CHO, HEK293); 37° C., 90 minutes; HPTLC fluorescence read-out
Description: EL is released as secretory protein in high concentration into cell culture medium (conditioned medium) by recombinant cell lines (CHO, HEK293). This was employed as enzyme solution after concentration.
The phospholipase-specific substrate 1,2-bis(4,4-difluoro-5,7-dimethyl-4-bora-3a,4a-diaza-s-indacene-3-undecanoyl)-sn-glycero-3-phosphocholine, (manufacturer Molecular Probes) was used to characterize the enzymatic activity of endothelial lipase and the effect of inhibitors. Hydrolysis of the A1 ester linkage of this phospholipid by the enzyme liberates a fatty acid labeled with the fluorescent dye Bodipy which can be detected after separation by thin-layer chromatography on an HPTLC plate (silica gel 60, Merck) or directly in the reaction vessel by measuring the fluorescence.
The substrate solution was prepared by 100 μg of 1,2-bis(4,4-difluoro-5,7-dimethyl-4-bora-3a,4a-diaza-s-indacene-3-undecanoyl)-sn-glycero-3-phospho-choline (manufacturer Molecular Probes) being dissolved in 100 μl of DMSO and taken up with 2.4 mg of tripalmitin (Sigma) in 393 μl of chloroform which contained 20 mg/ml DOP-choline (1,2-dioleoyl-sn-glycero-3-phosphocholine). 39.3 μl of this lipid mixture were transferred into a fresh reaction vessel and the solvent was evaporated. The lipid mixture was dissolved in 4 ml of 200 mM TRIS-HCl, 150 mM sodium chloride, pH=7.4, by sonication twice. The subsequent enzymic reaction took place at 37° C. for 90 minutes. For this purpose, 20 μl of the substrate solution were incubated with 2 μl of inhibitor of appropriate concentration (dissolved in 10% DMSO, using 10% DMSO solution for control) and 2 μl of enzyme solution (conditioned medium). Then 4 μl of the assay mixture were loaded onto an HPTLC plate (silica gel 60, Merck), and the liberated fluorescent dye was separated for detection with an eluent (diethyl ether:petroleum benzene:acetic acid [78:22:1]). After evaporation of the eluent, the plate was read in a fluorescence scanner. An increased liberation of the fluorescent dye in the uninhibited reaction was to be observed as a measure of the enzymic activity.
The enzymatic activity was reduced as a function of the inhibitor concentration used. The inhibitor concentration at which a half-maximum enzymatic activity is observed is called IC50.

Compound | IC50 [µM]
Cc1cc(Cl)nc2c1c(=O)n(C(=O)NCCc1cccs1)n2C [Example 4, 6-Chloro-1,4-dimethyl-3-oxo-1,3-dihydropyrazolo[3,4-b]pyridine-2-carboxylic acid (2-thiophen-2-ylethyl)amide] | 0.019
Cc1cc(Cl)nc2[nH]n(C(=O)N[C@@H]3CCc4ccccc43)c(=O)c12 [Example 8, 6-Chloro-4-methyl-3-oxo-1,3-dihydropyrazolo[3,4-b]pyridine-2-carboxylic acid (R)-indan-1-ylamide] | 0.091
CCCCCCNC(=O)n1oc2nc(C(F)(F)F)ccc2c1=O [Example 16, 3-Oxo-6-trifluoromethyl-3H-isoxazolo[5,4-b]pyridine-2-carboxylic acid hexylamide] | 0.01
CCCCCCNC(=O)n1c(=O)c2c(C)cc(Cl)nc2n1Cc1ccccc1 [Example 15, 1-Benzyl-6-chloro-4-methyl-3-oxo-1,3-dihydropyrazolo[3,4-b]pyridine-2-carboxylic acid hexylamide] | 0.057
Cc1cc(Cl)nc2c1c(=O)n(C(=O)NC1CCCc3ccccc31)n2C (stereo not shown) [Example 12, 6-Chloro-1,4-dimethyl-3-oxo-1,3-dihydropyrazolo[3,4-b]pyridine-2-carboxylic acid (1,2,3,4-tetrahydronaphthalen-1-yl)amide] | 0.029
CCCCCCNC(=O)n1oc2nc(C)ccc2c1=O [Example 17, 6-Methyl-3-oxo-3H-isoxazolo[5,4-b]pyridine-2-carboxylic acid hexylamide] | 0.011
Cc1cc(Cl)nc2[nH]n(C(=O)NC3CCCc4ccccc43)c(=O)c12 (stereo not shown) [Example 9, 6-Chloro-4-methyl-3-oxo-1,3-dihydropyrazolo[3,4-b]pyridine-2-carboxylic acid (1,2,3,4-tetrahydronaphthalen-1-yl)amide] | 1.21
CCCCn1c2nc(Cl)cc(C)c2c(=O)n1C(=O)NCCc1cccs1 [Example 11, 1-Butyl-6-chloro-4-methyl-3-oxo-1,3-dihydropyrazolo[3,4-b]pyridine-2-carboxylic acid (2-thiophen-2-ylethyl)amide] | 1.23
CCCCCCNC(=O)n1oc2ncccc2c1=O [Example 6, 3-Oxo-3H-isoxazolo[5,4-b]pyridine-2-carboxylic acid hexylamide] | 0.043
Cc1ccccc1CNC(=O)n1c(=O)c2c(C)cc(Cl)nc2n1C [Example 2, 6-Chloro-1,4-dimethyl-3-oxo-1,3-dihydro-pyrazolo[3,4-b]pyridine-2-carboxylic acid 2-methylbenzylamide] | 0.02
Cc1cc(Cl)nc2c1c(=O)n(C(=O)N[C@H]1CCc3ccccc31)n2C [Example 13, 6-Chloro-1,4-dimethyl-3-oxo-1,3-dihydropyrazolo[3,4-b]pyridine-2-carboxylic acid (S)-indan-1-ylamide] | 0.204
CCCCCCNC(=O)n1c(=O)c2c(C)cc(Cl)nc2n1CCCC [Example 10, 1-Butyl-6-chloro-4-methyl-3-oxo-1,3-dihydropyrazolo[3,4-b]pyridine-2-carboxylic acid hexylamide] | 0.001
Cc1cc(Cl)nc2c1c(=O)n(C(=O)N[C@@H]1CCc3ccccc31)n2C [Example 14, 6-Chloro-1,4-dimethyl-3-oxo-1,3-dihydropyrazolo[3,4-b]pyridine-2-carboxylic acid (R)-indan-1-ylamide] | 0.008

Source: patent publication US8148395B2, “Azolopyridin-3-one derivatives as inhibitors of lipases and phospholipases” (Sanofi-Aventis, priority 2006, dated 2012)
